Data set [1] has as its system HT-1376-derived tumor xenograft model. Put plainly: Small animal PET/CT imaging. Particulars: mouse, in vivo. Also on record: species or system mice. On the procedure: (§1) All animal experiments were performed following the protocols evaluated and approved by the Landesdirektion Sachsen, Referat 25 – Veterinärwesen, Lebensmittelüberwachung and Pharmazie (09105 Chemnitz, Germany, ethics approval number: 25-5131/562/52). HT-1376- and 5637-derived tumor xenograft models were established in NMRI nude mice (Rj: NMRI-Foxn1nu/nu, Charles River Laboratories, Sulzfeld, Germany) by subcutaneous injection of 5 × 10^6 cells in 100 μL of PBS containing 50% (v/v) Matrigel (Corning Life Sciences, Amsterdam, The Netherlands).
(§2) When the tumor volume reached 200 mm^3, PET experiments with radiotracers were performed. Radiolabeling of the ligands was performed as described previously with an apparent molar activity of 25 MBq/nmol. The radioligand stock solution (pH 6.5 – 7.5) was diluted in 0.9% NaCl, and 200 μL containing ∼9 MBq ([…]) was injected per mouse intravenously into a lateral tail vein. For blocking of target-specific radioligand binding, 75 nmol of blocking substance (1d) was administered simultaneously with the radioligand. Coincidences were recorded continuously in a 2 h PET-scan starting with the injection. Additionally, a CT scan was performed for anatomical referencing and attenuation correction. PET/CT imaging, reconstruction, and tissue delineation were carried out as described previously.

Data set [2] is described as follows: Small animal PET/CT imaging. Also on record: species or system mice. Particulars: mouse, in vivo. On the procedure:
as §1, §2

A short description of data set [3]: Oxidation stability in H2O2 (radio-HPLC). How it is done: To avoid a too rapid degradation of radiolabeled peptides, a low H2O2 concentration of 0.0012% was chosen. […] In this context, there are three further thioether functionalities in each peptide due to the cyclization of the Cys residues with TATA. In Figure , the curves for the time-dependent degradation of the intact radioligands are depicted, from which the respective half-lives were calculated.
The stability toward oxidizing conditions was assessed with H2O2. For this purpose, the radioligands (2 nmol, 48 μL of labeling mixture) were treated with H2O2 (2 μL of 0.03%, final concentration of 0.0012%) at ambient temperature. At distinct time points (3, 5, and 7 h), an aliquot of 2 μL was withdrawn and diluted with 48 μL of a mixture named “Supersol,” which consists of 20% ethanol, 0.5% Triton X-100, 5 mM EDTA, 0.5 mM o-phenanthroline, and 0.1% saponin. […] The resulting solutions were analyzed by radio-HPLC (same system as that used for analyzing the ^64Cu-labelings).

Data set [4] has as its target T1, immobilized human nectin-4 (Homo sapiens, UniProt Q96NY8).
T1 construct: close to the value determined for the complete extracellular domain of nectin-4 (0.94 nM); purchased R&D Systems 2659-N4
T1 sequence (Q96NY8 32-349 limits assumed): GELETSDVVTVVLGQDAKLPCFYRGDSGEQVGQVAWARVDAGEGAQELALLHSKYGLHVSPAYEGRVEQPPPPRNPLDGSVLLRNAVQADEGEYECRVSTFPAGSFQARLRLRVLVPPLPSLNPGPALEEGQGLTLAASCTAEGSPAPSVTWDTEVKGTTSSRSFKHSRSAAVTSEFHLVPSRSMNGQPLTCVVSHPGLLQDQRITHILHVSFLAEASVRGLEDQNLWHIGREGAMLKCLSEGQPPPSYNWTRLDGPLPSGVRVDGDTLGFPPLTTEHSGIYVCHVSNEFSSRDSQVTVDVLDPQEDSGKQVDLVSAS
The data set can be described thus: SPR analysis of binding kinetics. Particulars: for koff / kon: ±SEM; for koff: read-out: k off (SPR, *10^–3 s^–1); for kon: read-out: k on (SPR, *10^6 M^–1 s^–1). For orientation: SPR reads the build-up and loss of mass on a sensor chip optically.

The target in data set [5] is T2, recombinant human nectin-4 (Homo sapiens, UniProt Q96NY8).
T2 construct: close to the value determined for the complete extracellular domain of nectin-4 (0.94 nM); purchased R&D Systems 2659-N4
T2 sequence (Q96NY8 32-349 limits assumed): T1 sequence (Q96NY8 32-349 limits assumed)
Put plainly: FA-based competitive binding assay with probe 1a. Particulars: for Hill coefficient n: competitive binding curve, variable slope. On the procedure: For the competitive binding assay, a constant concentration of probe 1a (1 nM) and of nectin-4 (20 nM) was used, and the concentration of the competitors was varied over at least 3 orders of magnitude. […] Analysis of the curves by nonlinear regression according to dose–response inhibition with variable slope, as implemented in GraphPad Prism (see Experimental section), provided the IC50 value for displacing the probe from nectin-4.
All measurements were conducted at 37 °C over 1200 s (interval of 37 s) using a Cytation 5 multimode microplate reader (BioTek Instruments, Software Gen 5) and black 96-well microplates (BRANDplates with F-bottom wells). Experiments were conducted at an excitation wavelength of 540 nm and an emission wavelength of 620 nm. The FA (r) was calculated by Gen 5 software from the measured parallel and perpendicular fluorescence intensities (I ∥ and I ⊥, respectively) according to eq using a G factor of 0.87 (preset value). r=I∥−G×I⊥/I∥+2G×I⊥ 1
All further data analyses were conducted with GraphPad Prism (version 10.4.1, GraphPad Software, San Diego, CA, USA). The assay mixture (100 μL) contained an aqueous solution (99 μL) and DMSO (1%, v/v, 1 μL).
For the competitive binding assay, fixed concentrations of probe 1a (1 nM) and recombinant human nectin-4 (20 nM) and 10 concentrations of nonlabeled peptide (e.g., […] prepared as serial 1:1 dilution) were used (two separate experiments, each performed in duplicate). The corresponding stock solutions of 1a (2.5 nM) and nectin-4 (50 nM) were prepared in HEPES buffer, while the stock solutions of the nonlabeled peptides were prepared in 5% DMSO/HEPES buffer. nectin-4 (40 μL) and 1a (40 μL) were added to the wells, and the competition was started by the addition of the nonlabeled peptides (20 μL). The FA values were averaged over the time period of 1200 s, and plots of FA = f([peptide]) were analyzed by nonlinear regression according to the model “[inhibitor] vs. response – Variable slope (four parameters)” as implemented in GraphPad Prism. […] Therefore, the lower FA plateau was constrained to the FA value of probe 1a in the absence of nectin-4 and the competitor, which was recorded in each experiment.

Each structure is given as a SMILES string. Like-named read-outs stand apart in the source and are kept apart here. Numbered stars: 1 amine (or outer) side, 2 acyl side, 3 side chain; on linkers, the order of the positions; unused ones are H or OH. Bridge positions count the residues as written; N and C are the ends. Square brackets hold non-standard residues; d marks the D form. Peptide text beside a SMILES is read from it. * marks the point of attachment. DOTA = O=C(O)CN1CCN(CC(=O)O)CCN(CC(=O)*)CCN(CC(=O)O)CC1; TATA = O=C(CC[*:1])N1CN(C(=O)CC[*:2])CN(C(=O)CC[*:3])C1; X1 = O=C(O)CN1CCN(CC(=O)O)CCN([C@H](CCC(=O)*)C(=O)O)CC1; 1Nal = N[C@@H](Cc1cccc2ccccc12)C(=O)O; 2Nal = N[C@@H](Cc1ccc2ccccc2c1)C(=O)O; Hyp = O=C(O)[C@@H]1C[C@@H](O)CN1; hArg = N=C(N)NCCCC[C@H](N)C(=O)O

For the compound `CSCC[C@@H]1NC(=O)[C@@H]2CSCCC(=O)N3CN(CN(C3)C(=O)CCSC[C@H](NC(=O)CN3CCN(CC(=O)O)CCN(CC(=O)O)CCN(CC(=O)O)CC3)C(=O)N3CCC[C@H]3C(=O)N[C@@H](Cc3ccc4ccccc4c3)C(=O)N[C@H](CC(=O)O)C(=O)N2)C(=O)CCSC[C@@H](C(=O)O)NC(=O)[C@H](Cc2c[nH]c3ccccc23)NC(=O)[C@@H]2C[C@@H](O)CN2C(=O)[C@@H]2CCCN2C(=O)[C@H]([C@@H](C)O)NC(=O)[C@H](CO)NC(=O)[C@H](Cc2c[nH]c3ccccc23)NC(=O)[C@H](CC(=O)O)NC(=O)[C@H](CCCNC(=N)N)NC1=O` [[^68Ga]Ga-8d, metal not drawn, reference compound] ({DOTA}-CP[2Nal][dD]CMRDWSTP[Hyp]WC-OH; linker 1-5-15 via TATA), in data set [1], the “Percent fast [%]” value turned out to be 83.87 ±1.35%, the “body retention at 2 h p.i.” value is on record as 35% and the “time of highest tumor uptake” value came to 0.6 min. Besides, the half-life in data set [2] (Blood half life fast [min]) came to 1.5 ± 0.15 min. In data set [2] (Blood half life slow [min]), the half-life is 37.1 ± 2.19 min.

In data set [3], `CSCC[C@@H]1NC(=O)[C@@H]2CSCCC(=O)N3CN(CN(C3)C(=O)CCSC[C@H](NC(=O)CC[C@H](C(=O)O)N3CCN(CC(=O)O)CCN(CC(=O)O)CC3)C(=O)N3CCC[C@H]3C(=O)N[C@@H](Cc3cccc4ccccc34)C(=O)N[C@H](CC(=O)O)C(=O)N2)C(=O)CCSC[C@@H](C(N)=O)NC(=O)[C@H](Cc2c[nH]c3ccccc23)NC(=O)[C@@H]2C[C@@H](O)CN2C(=O)[C@@H]2CCCN2C(=O)[C@H]([C@@H](C)O)NC(=O)[C@H](CO)NC(=O)[C@H](Cc2c[nH]c3ccccc23)NC(=O)[C@H](CC(=O)O)NC(=O)[C@H](CCCNC(=N)N)NC1=O` [[^64Cu]Cu-10, metal not drawn] (X1-CP[1Nal][dD]CMRDWSTP[Hyp]WC-NH2; linker 1-5-15 via TATA) showed a half-life of 208 min.

As to `CSCC[C@@H]1NC(=O)[C@@H]2CSCCC(=O)N3CN(CN(C3)C(=O)CCSC[C@H](NC(=O)CN3CCN(CC(=O)O)CCN(CC(=O)O)CCN(CC(=O)O)CC3)C(=O)N3CCC[C@H]3C(=O)N[C@@H](Cc3ccc4ccccc4c3)C(=O)N[C@H](CC(=O)O)C(=O)N2)C(=O)CCSC[C@@H](C(N)=O)NC(=O)[C@H](Cc2c[nH]c3ccccc23)NC(=O)[C@@H]2C[C@@H](O)CN2C(=O)[C@@H]2CCCN2C(=O)[C@H]([C@@H](C)O)NC(=O)[C@H](CO)NC(=O)[C@H](Cc2c[nH]c3ccccc23)NC(=O)[C@H](CC(=O)O)NC(=O)[C@H](CCCNC(=N)N)NC1=O` [[^68Ga]Ga-8c, metal not drawn] ({DOTA}-CP[2Nal][dD]CMRDWSTP[Hyp]WC-NH2; linker 1-5-15 via TATA), in data set [1], the “Percent fast [%]” value was 78.28 ±1.97%, the “body retention at 2 h p.i.” value stood at 75% and the “time of highest tumor uptake” value worked out at 8.5 min. Further, in data set [2] (Blood half life fast [min]), the half-life was determined as 1.44 ± 0.19 min. In data set [2] (Blood half life slow [min]), the half-life came to 38.8 ± 2.49 min.

`CCSC[C@@H]1NC(=O)[C@@H]2CSCCC(=O)N3CN(CN(C3)C(=O)CCSC[C@H](NC(=O)CC[C@H](C(=O)O)N3CCN(CC(=O)O)CCN(CC(=O)O)CC3)C(=O)N3CCC[C@H]3C(=O)N[C@@H](Cc3cccc4ccccc34)C(=O)N[C@H](CC(=O)O)C(=O)N2)C(=O)CCSC[C@@H](C(N)=O)NC(=O)[C@H](Cc2c[nH]c3ccccc23)NC(=O)[C@@H]2C[C@@H](O)CN2C(=O)[C@@H]2CCCN2C(=O)[C@H]([C@@H](C)O)NC(=O)[C@H](CO)NC(=O)[C@H](Cc2c[nH]c3ccccc23)NC(=O)[C@H](CC(=O)O)NC(=O)[C@H](CCCCNC(=N)N)NC1=O` [compound 7] (X1-CP[1Nal][dD]CC(Et)[hArg]DWSTP[Hyp]WC-NH2; linker 1-5-15 via TATA): in data set [4] (HBS-P+ pH 7.4, 25 °C), the koff turned out to be 0.0268 s⁻¹ and the kon came to 4.61e+06 M⁻¹ s⁻¹. Also, in data set [5] (FA K d ratio), the “fold lower binding affinity compared to 1e” value is “approximately 10 fold”. In addition, in data set [5], the Hill coefficient n came to 1.93.

As to `CSCC[C@@H]1NC(=O)[C@@H]2CSCCC(=O)N3CN(CN(C3)C(=O)CCSC[C@H](NC(=O)CC[C@H](C(=O)O)N3CCN(CC(=O)O)CCN(CC(=O)O)CC3)C(=O)N3CCC[C@H]3C(=O)N[C@@H](Cc3ccc4ccccc4c3)C(=O)N[C@H](CC(=O)O)C(=O)N2)C(=O)CCSC[C@@H](C(N)=O)NC(=O)[C@H](Cc2c[nH]c3ccccc23)NC(=O)[C@@H]2C[C@@H](O)CN2C(=O)[C@@H]2CCCN2C(=O)[C@H]([C@@H](C)O)NC(=O)[C@H](CO)NC(=O)[C@H](Cc2c[nH]c3ccccc23)NC(=O)[C@H](CC(=O)O)NC(=O)[C@H](CCCCNC(=N)N)NC1=O` [compound 9], the kon in data set [4] (HBS-P+ pH 7.4, 25 °C) worked out at 1.69e+07 M⁻¹ s⁻¹. The “fold increase in k off vs 1e” value in data set [4] (SPR) is on record as 18 fold. The koff in data set [4] (pH 7.4, HBS-P+ pH 7.4, 25 °C) came out at 0.0765 s⁻¹. Also, the Hill coefficient n in data set [5] worked out at 1.57.

As to `CCSC[C@@H]1NC(=O)[C@@H]2CSCCC(=O)N3CN(CN(C3)C(=O)CCSC[C@H](NC(=O)CC[C@H](C(=O)O)N3CCN(CC(=O)O)CCN(CC(=O)O)CC3)C(=O)N3CCC[C@H]3C(=O)N[C@@H](Cc3cccc4ccccc34)C(=O)N[C@H](CC(=O)O)C(=O)N2)C(=O)CCSC[C@@H](C(N)=O)NC(=O)[C@H](Cc2c[nH]c3ccccc23)NC(=O)[C@@H]2C[C@@H](O)CN2C(=O)[C@@H]2CCCN2C(=O)[C@H]([C@@H](C)O)NC(=O)[C@H](CO)NC(=O)[C@H](Cc2c[nH]c3ccccc23)NC(=O)[C@H](CC(=O)O)NC(=O)[C@H](CCCCNC(=N)N)NC1=O` [[^64Cu]Cu-7, metal not drawn] (X1-CP[1Nal][dD]CC(Et)[hArg]DWSTP[Hyp]WC-NH2; linker 1-5-15 via TATA), the half-life in data set [3] (half-life of intact radiolabeled peptide (T1/2), 0.0012% H2O2, 25 °C, one-phase decay) was 529 min.

What is called half-life is the time needed for the level to fall by half in the phase considered.

The record behind these values is article PMC12557367, ““Precision on Two Wheels”–Structural Refinement of ^64Cu- and ^68Ga-Labeled Bicyclic Peptides Targeting Nectin‑4 for Improved Tumor Imaging: From Preclinical Development to First-in-Human Application” (Journal of Medicinal Chemistry, 2025).
